Reference: PubChem BioAssay (NCI)
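Compound exposure: 48 hours, 5 concentrations, 96-well plates. GI50 marks 50% less growth. TGI denotes the concentration required for complete inhibition of growth.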

What was measured:
Assay in all cases: NCI tumour cell line growth inhibition, 48 h
OVCAR-5 ovarian = tested on: OVCAR-5 ovarian
SN12C renal = tested on: SN12C renal
LOX IMVI melanoma = tested on: LOX IMVI melanoma
HL-60(TB) leukemia = tested on: HL-60(TB) leukemia
IGROV1 ovarian = tested on: IGROV1 ovarian
EKVX NSCLC = tested on: EKVX NSCLC
OVCAR-3 ovarian = tested on: OVCAR-3 ovarian
SR leukemia = tested on: SR leukemia
SF-295 CNS = tested on: SF-295 CNS
NCI-H522 lung = tested on: NCI-H522 lung

CCN(CC)c1ccc(/C=N/NC(=O)CSc2nc3ccccc3c(=O)n2Cc2ccc(S(N)(=O)=O)cc2)c(O)c1
GI50 (OVCAR-5 ovarian): 2.09 µM
TGI (OVCAR-5 ovarian): > 100 µM
GI50 (SN12C renal): 1.93 µM
TGI (SN12C renal): > 100 µM
GI50 (LOX IMVI melanoma): 0.387 µM
TGI (LOX IMVI melanoma): 10.5 µM
GI50 (HL-60(TB) leukemia): 0.412 µM
TGI (HL-60(TB) leukemia): 5.38 µM
GI50 (IGROV1 ovarian): 0.785 µM
TGI (IGROV1 ovarian): > 100 µM
GI50 (EKVX NSCLC): 0.65 µM
TGI (EKVX NSCLC): > 100 µM
GI50 (OVCAR-3 ovarian): 0.287 µM
TGI (OVCAR-3 ovarian): > 100 µM
GI50 (SR leukemia): 0.212 µM
TGI (SR leukemia): > 100 µM
GI50 (SF-295 CNS): 1.47 µM
TGI (SF-295 CNS): > 100 µM
GI50 (NCI-H522 lung): 2.4 µM
TGI (NCI-H522 lung): > 100 µM

CC(C)C(=S)N(C)O
TGI (OVCAR-5 ovarian): > 100 µM
TGI (SN12C renal): > 100 µM
TGI (LOX IMVI melanoma): 62.5 µM
TGI (HL-60(TB) leukemia): > 24.2 µM
TGI (IGROV1 ovarian): > 100 µM
TGI (EKVX NSCLC): > 100 µM
TGI (OVCAR-3 ovarian): > 100 µM
TGI (SR leukemia): > 100 µM
TGI (SF-295 CNS): > 100 µM
TGI (NCI-H522 lung): > 27.2 µM

CCOc1ccc(N=Cc2ccnc3ccccc23)cc1
TGI (OVCAR-5 ovarian): > 100 µM
TGI (SN12C renal): > 91.5 µM
TGI (LOX IMVI melanoma): > 80.3 µM
TGI (HL-60(TB) leukemia): 17 µM
TGI (IGROV1 ovarian): > 100 µM
TGI (EKVX NSCLC): > 100 µM
TGI (OVCAR-3 ovarian): 73.1 µM
TGI (SR leukemia): 6.76 µM
TGI (SF-295 CNS): > 100 µM
TGI (NCI-H522 lung): > 94.8 µM

Cc1nc(Sc2nc3ccc([N+](=O)[O-])cc3s2)sc1C
GI50 (OVCAR-5 ovarian): 2.84 µM
TGI (OVCAR-5 ovarian): 11.8 µM
GI50 (SN12C renal): 1.74 µM
TGI (SN12C renal): 6.04 µM
GI50 (LOX IMVI melanoma): 0.221 µM
TGI (LOX IMVI melanoma): 0.932 µM
GI50 (HL-60(TB) leukemia): 1.68 µM
TGI (HL-60(TB) leukemia): 4.6 µM
GI50 (IGROV1 ovarian): 3 µM
TGI (IGROV1 ovarian): 14.8 µM
GI50 (EKVX NSCLC): 11.6 µM
TGI (EKVX NSCLC): 24.2 µM
GI50 (OVCAR-3 ovarian): 1.35 µM
TGI (OVCAR-3 ovarian): 3.28 µM
GI50 (SR leukemia): 0.367 µM
TGI (SR leukemia): 5.94 µM
GI50 (SF-295 CNS): 13.8 µM
TGI (SF-295 CNS): 26.7 µM
GI50 (NCI-H522 lung): 0.627 µM
TGI (NCI-H522 lung): 2.36 µM

CC[C@@H](O)C[C@H]1CCC[C@@]2(C[C@@H]3OC(=O)/C=C/[C@@](C)(O)[C@@H](O)[C@H](C)[C@@H](O)[C@H](OC4CCC(N(C)C)C(C)O4)[C@@H](O)[C@](C)(O)CCCCC/C=C/[C@@H]4CC(C)(C)O[C@@]4(O)C[C@H](O2)[C@H]3C)O1 (stereo not given in full)
TGI (OVCAR-5 ovarian): 28.1 µM
TGI (SN12C renal): 37.1 µM
TGI (LOX IMVI melanoma): 9.46 µM
TGI (HL-60(TB) leukemia): > 39.8 µM
TGI (IGROV1 ovarian): 21.8 µM
TGI (EKVX NSCLC): 19.1 µM
TGI (OVCAR-3 ovarian): 25.5 µM
TGI (SR leukemia): 9.42 µM
TGI (SF-295 CNS): 21.6 µM
TGI (NCI-H522 lung): 12.3 µM

Cc1c(C)c2c(c(C)c1OCC(=O)O)CC[C@@](C)(CCC[C@@H](C)CCC[C@@H](C)CCCC(C)C)O2
GI50 (OVCAR-5 ovarian): 86.3 µM
TGI (OVCAR-5 ovarian): 155 µM
GI50 (SN12C renal): 66.7 µM
TGI (SN12C renal): 176 µM
GI50 (LOX IMVI melanoma): 78.7 µM
TGI (LOX IMVI melanoma): 216 µM
GI50 (HL-60(TB) leukemia): 77.2 µM
TGI (HL-60(TB) leukemia): 156 µM
GI50 (IGROV1 ovarian): 91.7 µM
TGI (IGROV1 ovarian): 187 µM
GI50 (EKVX NSCLC): 64.2 µM
TGI (EKVX NSCLC): 148 µM
GI50 (OVCAR-3 ovarian): 77.3 µM
TGI (OVCAR-3 ovarian): 154 µM
GI50 (SR leukemia): 50.4 µM
TGI (SR leukemia): 500 µM
GI50 (SF-295 CNS): 60.1 µM
TGI (SF-295 CNS): 146 µM
GI50 (NCI-H522 lung): 64.1 µM
TGI (NCI-H522 lung): 154 µM

C/C(CC(=O)Nc1ccc(NC(=O)C/C(C)=N\NC(N)=O)cc1)=N/NC(N)=O
TGI (OVCAR-5 ovarian): > 100 µM
TGI (SN12C renal): > 100 µM
TGI (LOX IMVI melanoma): > 60.1 µM
TGI (HL-60(TB) leukemia): > 100 µM
TGI (IGROV1 ovarian): > 100 µM
TGI (EKVX NSCLC): > 100 µM
TGI (OVCAR-3 ovarian): > 100 µM
TGI (SR leukemia): > 62.5 µM
TGI (SF-295 CNS): > 100 µM
TGI (NCI-H522 lung): > 100 µM

C=C(CN1c2ccccc2Sc2ccccc21)c1ccc(C(=O)Nc2ccccc2N)cc1
GI50 (OVCAR-5 ovarian): > 100 µM
TGI (OVCAR-5 ovarian): > 100 µM
GI50 (SN12C renal): 8.07 µM
TGI (SN12C renal): > 100 µM
GI50 (LOX IMVI melanoma): > 52.7 µM
TGI (LOX IMVI melanoma): > 100 µM
GI50 (HL-60(TB) leukemia): 0.184 µM
TGI (HL-60(TB) leukemia): > 100 µM
GI50 (IGROV1 ovarian): 28.1 µM
TGI (IGROV1 ovarian): > 100 µM
GI50 (EKVX NSCLC): > 86 µM
TGI (EKVX NSCLC): > 100 µM
GI50 (OVCAR-3 ovarian): 8.08 µM
TGI (OVCAR-3 ovarian): > 100 µM
GI50 (SR leukemia): 2.32 µM
TGI (SR leukemia): > 59.5 µM
GI50 (SF-295 CNS): > 38.3 µM
TGI (SF-295 CNS): > 100 µM
GI50 (NCI-H522 lung): 1.63 µM
TGI (NCI-H522 lung): > 100 µM

Cc1noc(C)c1-c1cnc2c(-c3ccc(C(=O)O)cc3)cn([C@@H](C)c3ccccn3)c2c1
GI50 (OVCAR-5 ovarian): 4.22 µM
TGI (OVCAR-5 ovarian): > 100 µM
GI50 (SN12C renal): 2.99 µM
TGI (SN12C renal): > 100 µM
GI50 (LOX IMVI melanoma): 0.315 µM
TGI (LOX IMVI melanoma): 7.73 µM
GI50 (HL-60(TB) leukemia): 0.253 µM
TGI (HL-60(TB) leukemia): > 100 µM
GI50 (IGROV1 ovarian): 0.607 µM
TGI (IGROV1 ovarian): > 100 µM
GI50 (EKVX NSCLC): 0.58 µM
TGI (EKVX NSCLC): > 100 µM
GI50 (OVCAR-3 ovarian): 0.959 µM
TGI (OVCAR-3 ovarian): 32.1 µM
GI50 (SR leukemia): 0.838 µM
TGI (SR leukemia): > 100 µM
GI50 (SF-295 CNS): 3.71 µM
TGI (SF-295 CNS): > 100 µM
GI50 (NCI-H522 lung): 0.231 µM
TGI (NCI-H522 lung): > 49.7 µM

NC(CSC(c1ccccc1)(c1ccccc1)c1ccc(F)cc1)C(=O)O (stereo not given)
GI50 (OVCAR-5 ovarian): 4.18 µM
TGI (OVCAR-5 ovarian): > 76.5 µM
GI50 (SN12C renal): 0.564 µM
TGI (SN12C renal): > 70.7 µM
GI50 (LOX IMVI melanoma): 0.891 µM
TGI (LOX IMVI melanoma): > 100 µM
GI50 (HL-60(TB) leukemia): 0.268 µM
TGI (HL-60(TB) leukemia): 2.47 µM
GI50 (IGROV1 ovarian): 0.856 µM
TGI (IGROV1 ovarian): > 100 µM
GI50 (EKVX NSCLC): 0.525 µM
TGI (EKVX NSCLC): > 74.2 µM
GI50 (OVCAR-3 ovarian): 0.355 µM
TGI (OVCAR-3 ovarian): 4.38 µM
GI50 (SR leukemia): 0.253 µM
TGI (SR leukemia): 2.93 µM
GI50 (SF-295 CNS): 0.346 µM
TGI (SF-295 CNS): 13 µM
GI50 (NCI-H522 lung): 0.3 µM
TGI (NCI-H522 lung): 0.704 µM

Cc1cn2c(/C=N/N=C(N)N)c(-c3ccncc3)nc2s1
GI50 (OVCAR-5 ovarian): 17.8 µM
TGI (OVCAR-5 ovarian): 31.7 µM
GI50 (SN12C renal): 32.7 µM
TGI (SN12C renal): 69.7 µM
GI50 (LOX IMVI melanoma): 14.9 µM
TGI (LOX IMVI melanoma): 28.1 µM
GI50 (HL-60(TB) leukemia): 19.7 µM
TGI (HL-60(TB) leukemia): 40.1 µM
GI50 (IGROV1 ovarian): 22.1 µM
TGI (IGROV1 ovarian): 49.2 µM
GI50 (EKVX NSCLC): 12.5 µM
TGI (EKVX NSCLC): 26.8 µM
GI50 (OVCAR-3 ovarian): 17.5 µM
TGI (OVCAR-3 ovarian): 33.6 µM
GI50 (SR leukemia): 5.3 µM
TGI (SR leukemia): 17.5 µM
GI50 (SF-295 CNS): 14.3 µM
TGI (SF-295 CNS): 29.2 µM
GI50 (NCI-H522 lung): 17.7 µM
TGI (NCI-H522 lung): 59.7 µM
